This is an account of results in patent US12134611B2, “Compounds and compositions for treating conditions associated with NLRP activity” (Novartis AG, priority 2018, dated 2024).

For this test, the target named is T1, hNLRP3 (Homo sapiens, UniProt Q96P20).
T1 construct: THP-1 cells were purchased from the American Type Culture Collection; host or cells: THP-1 cells, PMA-differentiated, stimulated with gramicidin
T1 sequence (Q96P20 whole entry): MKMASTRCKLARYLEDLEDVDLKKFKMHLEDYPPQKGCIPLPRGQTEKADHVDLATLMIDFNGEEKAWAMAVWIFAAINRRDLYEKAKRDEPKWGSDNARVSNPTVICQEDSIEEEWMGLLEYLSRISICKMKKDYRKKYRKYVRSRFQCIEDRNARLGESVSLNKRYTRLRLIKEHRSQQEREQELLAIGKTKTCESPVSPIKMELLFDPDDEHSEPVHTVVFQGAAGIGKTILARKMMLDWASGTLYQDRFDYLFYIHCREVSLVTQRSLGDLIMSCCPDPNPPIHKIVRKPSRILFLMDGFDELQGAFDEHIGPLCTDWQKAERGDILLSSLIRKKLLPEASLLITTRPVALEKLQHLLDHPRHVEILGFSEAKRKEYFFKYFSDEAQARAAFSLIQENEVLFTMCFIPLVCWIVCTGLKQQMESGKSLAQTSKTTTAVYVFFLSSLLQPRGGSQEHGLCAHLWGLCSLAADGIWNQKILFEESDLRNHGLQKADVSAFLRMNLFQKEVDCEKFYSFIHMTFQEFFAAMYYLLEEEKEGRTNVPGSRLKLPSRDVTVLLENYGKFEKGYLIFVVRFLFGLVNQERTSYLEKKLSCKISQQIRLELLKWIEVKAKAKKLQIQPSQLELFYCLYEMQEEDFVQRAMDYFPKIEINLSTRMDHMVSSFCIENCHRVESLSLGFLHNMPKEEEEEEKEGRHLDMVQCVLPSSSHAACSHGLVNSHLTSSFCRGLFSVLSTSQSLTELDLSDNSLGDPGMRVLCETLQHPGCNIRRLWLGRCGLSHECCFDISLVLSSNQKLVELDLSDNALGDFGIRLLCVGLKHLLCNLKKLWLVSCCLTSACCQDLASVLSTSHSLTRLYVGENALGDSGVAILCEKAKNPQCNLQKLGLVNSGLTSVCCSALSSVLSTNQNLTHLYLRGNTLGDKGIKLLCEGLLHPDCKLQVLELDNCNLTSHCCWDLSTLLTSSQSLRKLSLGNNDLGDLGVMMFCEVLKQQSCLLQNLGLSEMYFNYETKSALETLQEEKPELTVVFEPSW
Briefly: IL-1β production in PMA-differentiated THP-1 cells stimulated with gramicidin (hTHP-1 assay). Type of test: cell-based. As to conditions: read-out: NLRP3 Antagonist, hNLRP3 (THP-1, IL-1b) Normalized: GeoMean IC50. As to the method:
Procedure 1: IL-1β Production in PMA-Differentiated THP-1 Cells Stimulated with Gramicidin.
THP-1 cells were purchased from the American Type Culture Collection and sub-cultured according to instructions from the supplier. […] Prior to the experiment, compounds were dissolved in dimethyl sulfoxide (DMSO) to generate a 30 mM stock. […] DMSO was backfilled in the plate to achieve a final DMSO assay concentration of 0.37%. The plate was then sealed and stored at room temperature until required.
THP-1 cells were treated with PMA (Phorbol 12-myristate 13-acetate) (20 ng/ml) for 16-18 hours. On the day of the experiment the media was removed and adherent cells were detached with trypsin for 5 minutes.
Procedure 2: IL-1β Production in PMA-Differentiated THP-1 Cells Stimulated with Gramicidin.
THP-1 cells were purchased from the American Type Culture Collection and sub-cultured according to instructions from the supplier. […] Prior to the experiment THP-1 were treated with PMA (Phorbol 12-myristate 13-acetate) (20 ng/ml) for 16-18 hours. Compounds were dissolved in dimethyl sulfoxide (DMSO) to generate a 30 mM stock. On the day of the experiment the media was removed and adherent cells were detached with trypsin for 5 minutes. […] Final DMSO concentration was at 0.37%. Cells were incubated with compounds for 1 hour and then stimulated with gramicidin (5 μM) (Enzo) for 2 hours. Plates were then centrifuged at 340 g for 5 min. Cell free supernatant (40 μL) was collected using a 96-channel PlateMaster (Gilson) and the production of IL-1β was evaluated by HTRF (cisbio).
1. Experimental procedure
1.2 Compound Preparation • Prepare the 3-fold serial dilution of the compounds with DMSO in a 384-well LDV Microplate using TECAN EVO system to generate the compound source plate with 10 concentrations. Top concentration is 30 mM. FIG. 5 depicts the layout of the microplate.
FIG. 5 depicts the layout of the plates: HC: 100 μM CRID3 (MCC950)+5 μM gramicidin LC: 5 μM Gramicidin.
1.5 IL-1β Detection • 1) Homogenize the 5× diluent #5 with a vortex and add 1 volume of stock solution in 4 volumes of distilled water. • 2) Thaw 20× stock solution of anti-IL1β-Cryptate-antibody and anti-IL1β XL-antibody. […] 2. Data Analysis: • 1.
A word on the IC50: it is the point on the concentration scale where inhibition reaches its midpoint. Turning to `CC(C)c1cc2c(c(C(C)C)c1CC(=O)N=S1(=O)NC(=O)c3ccc(C(C)(C)O)cc31)COC2` (stereo not drawn) [Compound 104, 2-(4,6-diisopropyl-1,3-dihydroisobenzofuran-5-yl)-N-(6-(2-hydroxypropan-2-yl)-1-oxido-3-oxo-2,3-dihydro-1l4-benzo[d]isothiazol-1-ylidene)acetamide], the IC50 was over 30 µM.
In the case of `Cc1c(C2CC2)nc2c(c1NC(=O)N=S1(=O)NC(=O)c3ccc(C(C)(C)O)cc31)CCC2` (stereo not drawn) [Compound 105, 1-(2-cyclopropyl-3-methyl-6,7-dihydro-5H-cyclopenta[b]pyridin-4-yl)-3-(6-(2-hydroxypropan-2-yl)-1-oxido-3-oxo-2,3-dihydro-1l4-benzo[d]isothiazol-1-ylidene)urea], the IC50 was 0.2 to 1 µM.
For `CC(C)(O)c1ccc2c(c1)S(=O)(=NC(=O)Nc1c3c(nc(C4CC4)c1C1CC1)CCC3)NC2=O` (stereo not drawn) [Compound 106, 1-(2,3-dicyclopropyl-6,7-dihydro-5H-cyclopenta[b]pyridin-4-yl)-3-(6-(2-hydroxypropan-2-yl)-1-oxido-3-oxo-2,3-dihydro-1l4-benzo[d]isothiazol-1-ylidene)urea], the IC50 lay within 1 to 5 µM.
The same measure for `CN1Cc2ccccc2S1(=O)=NC(=O)Nc1c2c(cc3c1CCC3)CCC2` (stereo not drawn) [Compound 107]: over 30 µM; for `Cc1c(C(F)(F)F)nc2c(c1NC(=O)N=S1(=O)NC(=O)c3ccc(C(C)(C)O)cc31)CCC2` (stereo not drawn) [Compound 108, 1-(6-(2-hydroxypropan-2-yl)-1-oxido-3-oxo-2,3-dihydro-1l4-benzo[d]isothiazol-1-ylidene)-3-(3-methyl-2-(trifluoromethyl)-6,7-dihydro-5H-cyclopenta[b]pyridin-4-yl)urea]: 1 to 5 µM.
Turning to `CC(C)c1cc(F)cc(C(C)C)c1CC(=O)N=S1(=O)NC(=O)c2ccc(C(C)(C)O)cc21` (stereo not drawn) [Compound 109], the IC50 is over 30 µM.
The same measure for `CN(C)Cc1ccc2c(c1)S(=O)(=NC(=O)Nc1c3c(cc4c1CCC4)CCC3)NC2=O` (stereo not drawn) [Compound 110, 1-(6-((dimethylamino)methyl)-1-oxido-3-oxo-2,3-dihydro-1l4-benzo[d]isothiazol-1-ylidene)-3-(1,2,3,5,6,7-hexahydro-s-indacen-4-yl)urea]: 1 to 5 µM; for `CC(C)(O)c1ccc2c(c1)S(=O)(=NC(=O)Nc1c3c(cc4c1CC4)CCC3)NC2=O` (stereo not drawn) [Compound 112, 1-(6-(2-hydroxypropan-2-yl)-1-oxido-3-oxo-2,3-dihydro-1l4-benzo[d]isothiazol-1-ylidene)-3-(2,4,5,6-tetrahydro-1H-cyclobuta[f]inden-3-yl)urea]: 0.2 to 1 µM.
The same measure for `O=C1CCCS(=O)(=NC(=O)Nc2c3c(cc4c2CCC4)CCC3)N1` (stereo not drawn) [Compound 113, 1-(1,2,3,5,6,7-hexahydro-s-indacen-4-yl)-3-(1-oxido-3-oxo-1l6,2-thiazinan-1-ylidene)urea]: 1 to 5 µM.
For the compound `CC(C)(O)c1ccc2c(c1)S(=O)(=NC(=O)Cc1cc3c(c4c1CCC4)CCC3)NC2=O` (stereo not drawn) [Compound 114, 2-(1,2,3,6,7,8-hexahydro-as-indacen-4-yl)-N-(6-(2-hydroxypropan-2-yl)-1-oxido-3-oxo-2,3-dihydro-1l4-benzo[d]isothiazol-1-ylidene)acetamide], the IC50 was over 30 µM.
`CC(C)(O)c1ccc2c(c1)S(=O)(=NC(=O)Cc1c3c(cc4c1CCC4)CCC3)NC2=O` (stereo not drawn) [Compound 115, 2-(1,2,3,5,6,7-hexahydro-s-indacen-4-yl)-N-(6-(2-hydroxypropan-2-yl)-1-oxido-3-oxo-2,3-dihydro-1l4-benzo[d]isothiazol-1-ylidene)acetamide]: the IC50 was over 30 µM.
As for `CN1C(=O)c2ccccc2S1(=O)=NC(=O)Nc1c2c(cc3c1CCC3)CCC2` (stereo not drawn) [Compound 116], the figure is over 30 µM.
As for `CC(C)(O)c1ccc2c(c1)S(=O)(=NC(=O)Nc1c3c(nc4c1CCC4)CCC3)NC2=O` (stereo not drawn) [Compound 117], the figure is 1 to 5 µM; as for `CC(C)(O)c1ccc2c(c1)S(=O)(=NC(=O)Nc1c3c(nc4c1CCC4(C)C)CCC3)NC2=O` (stereo not drawn) [Compound 118, 1-(3,3-dimethyl-1,2,3,5,6,7-hexahydrodicyclopenta[b,e]pyridin-8-yl)-3-(6-(2-hydroxypropan-2-yl)-1-oxido-3-oxo-2,3-dihydro-1l4-benzo[d]isothiazol-1-ylidene)urea], 1 to 5 µM; as for `O=C(N=S1(=O)CCCN1)Nc1c2c(cc3c1CCC3)CCC2` (stereo not drawn) [Compound 119, 1-(1,2,3,5,6,7-hexahydro-s-indacen-4-yl)-3-(1-oxido-1l6-isothiazolidin-1-ylidene)urea], 5 to 30 µM.
The same measure for `CC(C)(O)c1ccc2c(c1)C(=O)NS2(=O)=NC(=O)Nc1c2c(cc3c1CCC3)CCC2` (stereo not drawn) [Compound 121, 1-(1,2,3,5,6,7-hexahydro-s-indacen-4-yl)-3-(5-(2-hydroxypropan-2-yl)-1-oxido-3-oxo-2,3-dihydro-1l4-benzo[d]isothiazol-1-ylidene)urea]: 0.2 to 1 µM; for `CN(C)Cc1ccc2c(c1)CNS2(=O)=NC(=O)Nc1c2c(cc3c1CCC3)CCC2` (stereo not drawn) [Compound 122, 1-{5-[(dimethylamino)methyl]-1-oxo-2,3-dihydro-1$l6,2-benzothiazol-1-ylidene}-3-(1,2,3,5,6,7-hexahydro-s-indacen-4-yl)urea]: 5 to 30 µM; for `CC(C)c1cc(C(F)F)cc(C(C)C)c1CC(=O)N=S1(=O)NC(=O)c2ccccc21` (stereo not drawn) [Compound 123a]: over 30 µM.
Turning to `CC(C)c1cc(C(F)F)cc(C(C)C)c1CC(=O)N=S1(=O)NC(=O)c2cc(CN(C)C)ccc21` (stereo not drawn) [Compound 124, 2-[4-(difluoromethyl)-2,6-bis(propan-2-yl)phenyl]-N-{5-[(dimethylamino)methyl]-1,3-dioxo-2,3-dihydro-1$l6,2-benzothiazol-1-ylidene}acetamide], the IC50 is over 30 µM.
As for `CN(C)Cc1ccc2c(c1)C(=O)NS2(=O)=NC(=O)Nc1c2c(cc3c1CCC3)CCC2` (stereo not drawn) [Compound 125, 1-{5-[(dimethylamino)methyl]-1,3-dioxo-2,3-dihydro-1$l6,2-benzothiazol-1-ylidene}-3-(1,2,3,5,6,7-hexahydro-s-indacen-4-yl)urea], the figure is 5 to 30 µM.
As to `CC(C)(O)c1ccc2c(c1)S(=O)(=NC(=O)Nc1c3c(cc4c1CCC4)CCC3)NC2` (stereo not drawn) [Compound 126, 1-(1,2,3,5,6,7-hexahydro-s-indacen-4-yl)-3-[6-(2-hydroxypropan-2-yl)-1-oxo-2,3-dihydro-1-^λ-6,2-benzothiazol-1-ylidene]urea], the half-maximal inhibitory concentration (IC50) is over 30 µM.
As for `O=C(Nc1c2c(cc3c1CCC3)CCC2)NS1(=O)=NC(=O)c2ccc(Cl)cc21` (stereo not drawn) [Compound 128, 3-(6-chloro-1,3-dioxo-2,3-dihydro-1-^λ-6,2-benzothiazol-1-ylidene)-1-(1,2,3,5,6,7-hexahydro-s-indacen-4-yl)urea], the figure is 5 to 30 µM; as for `O=C(N=S1(=O)CC2(COC2)C(=O)N1)Nc1c2c(cc3c1CCC3)CCC2` (stereo not drawn) [Compound 132, 1-(1,2,3,5,6,7-hexahydro-s-indacen-4-yl)-3-(6-oxido-8-oxo-2-oxa-6l6-thia-7-azaspiro[3.4]octan-6-ylidene)urea], 1 to 5 µM.
The same measure for `CN(C)Cc1ccc2c(c1)S(=O)(=NC(=O)Nc1c3c(cc4c1CCC4)CCC3)NC2` (stereo not drawn) [Compound 133, 1-(6-((dimethylamino)methyl)-1-oxido-2,3-dihydro-1l4-benzo[d]isothiazol-1-ylidene)-3-(1,2,3,5,6,7-hexahydro-s-indacen-4-yl)urea]: 5 to 30 µM.
